Laboratory results published in US10662205B2, “Cyclic boronic acid ester derivatives and therapeutic uses thereof” (priority 2014, dated 2020).
Each block holds one molecule with its values, some of them ahead of it.

Legend:
KP1004 (KPC-2) [1] = assay: organism not typed; format: cell-based; details: read-out: Aztreonam MIC
KP1009 (CTX-M-15) [2] = assay: organism not typed; format: cell-based; details: read-out: Aztreonam MIC
KP1005 (CTX-M-14) [3] = assay: organism not typed; format: cell-based; details: read-out: Aztreonam MIC
ec308 (SHV-5) [4] = assay: Aztreonam MIC of test strain; format: cell-based
ec302 (TEM-10) [5] = assay: Aztreonam MIC of test strain; format: cell-based
KP1010 (SHV-12) [6] = assay: Aztreonam MIC of test strain; format: cell-based
EC1010 (CMY-6) [7] = assay: Aztreonam MIC of test strain; format: cell-based
KP1086 (OXA-48) [8] = assay: Biapenem MIC of test strain; details: read-out: Biapenem MIC
PAM1154/KPC-2 [9] = assay: Biapenem MIC; format: cell-based; details: Pseudomonas aeruginosa; PAM1154 with KPC-2 plasmid
Protocol: (§1) Efflux of BLIs from Pseudomonas aeruginosa by the MexAB-OprM efflux pump was also evaluated. The plasmid expressing the gene encoding KPC-2 was introduced into two strains of P. aeruginosa, PAM1032 and PAM1154 that overexpressed or lacked MexAB-OprM, respectively. Due to expression of KPC-2 both strains became resistant to biapenem. […] Potency of BLIs to potentiate biapenem in these strains was determined. […] The ratio of MPC64 values for each BLI in PAM1032/KPC-2 (efflux proficient) and PAM1154/KPC-2 (efflux deficient) was determined to generate the Efflux Index (EI).

PAM1032/KPC-2 [10] = assay: Biapenem MIC; format: cell-based; details: Pseudomonas aeruginosa; PAM1032 with KPC-2 plasmid
Protocol: as §1

KP1004 (KPC-2) [11] = assay: Biapenem MIC of test strain; details: read-out: Biapenem MIC
KP1005 (CTX-M-14) [12] = assay: Tigemonam potentiation (MPC@4); format: cell-based; details: tigemonam 4 μg/mL
EC1010 (CMY-6) [13] = assay: Aztreonam potentiation (MPC@4); format: cell-based; details: aztreonam 4 μg/mL
KP1009 (CTX-M-15) [14] = assay: Aztreonam potentiation (MPC@4); format: cell-based; details: aztreonam 4 μg/mL
P99 = P99 (Enterobacter cloacae, UniProt P05364); assay: biochemical; details: nitrocefin reporter substrate; 10 min preincubation; read-out: Ki P99, NCF
P99, sequence (P05364 21-381): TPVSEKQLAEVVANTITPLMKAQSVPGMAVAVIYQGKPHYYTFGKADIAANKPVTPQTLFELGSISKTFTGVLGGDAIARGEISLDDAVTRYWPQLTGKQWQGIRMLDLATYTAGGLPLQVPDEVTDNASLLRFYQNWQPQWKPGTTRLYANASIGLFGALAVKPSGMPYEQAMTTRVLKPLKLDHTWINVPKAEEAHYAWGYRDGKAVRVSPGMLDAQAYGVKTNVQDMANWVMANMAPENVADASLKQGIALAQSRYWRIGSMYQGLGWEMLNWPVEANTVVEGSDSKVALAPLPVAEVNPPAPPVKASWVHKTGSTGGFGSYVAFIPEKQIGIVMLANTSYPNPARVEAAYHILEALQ
Protocol: (§2) Ki values of inhibition of purified class A, C and D enzymes were determined spectrophotometrically using nitrocefin as reporter substrate. Purified enzymes were mixed with various concentrations of inhibitors in reaction buffer and incubated for 10 min at room temperature. Nitrocefin was added and substrate cleavage profiles were recorded at 490 nm every 10 sec for 10 min.

EC1010 (CMY-6) [15] = assay: Tigemonam potentiation (MPC@4); format: cell-based; details: tigemonam 4 μg/mL; EC1010, CMY-6
ec302 (TEM-10) [16] = assay: Aztreonam potentiation (MPC@4); format: cell-based; details: aztreonam 4 μg/mL
ec302 (TEM-10) [17] = assay: Tigemonam potentiation (MPC@4); format: cell-based; details: tigemonam 4 μg/mL
Oral pharmacokinetics = format: in vivo; details: rat, plasma; rats, single oral dose 30 mg/kg, n=3; read-out: Range of % Oral Bioavailability
Protocol: Several compounds were tested for their oral pharmacokinetics. Rats (n=3 per compound) were administered a single oral dose. Oral doses were administered as a bolus. Plasma (˜0.3 mL) samples were collected from each rat at designated time points up to 24 hours. Blood samples were centrifuged within 5 min of collection at 12000 g for 5 min to obtain plasma. The plasma samples were stored at −80° C. until analyzed. Data were analyzed using WinNonlin.

PAM1154/KPC-2 [18] = assay: Biapenem potentiation MPC64, efflux deficient strain; format: cell-based, Pseudomonas aeruginosa; parameters: unit not given here; details: efflux deficient (lacks MexAB-OprM); decrease biapenem MIC 64-fold, 32 to 0.5 μg/ml
Protocol: as §1

ECL1002 [19] = assay: Aztreonam potentiation (MPC@4); format: cell-based; details: aztreonam 4 μg/mL
ec308 (SHV-5) [20] = assay: Tigemonam potentiation (MPC@4); format: cell-based; details: tigemonam 4 μg/mL
KP1004 (KPC-2) [21] = assay: Biapenem potentiation (MPC@1); details: biapenem 1 μg/mL
KP1004 (KPC-2) [22] = assay: Aztreonam potentiation (MPC@4); format: cell-based; details: aztreonam 4 μg/mL
PAM1032/KPC-2 [23] = assay: Biapenem potentiation MPC64, efflux proficient strain; format: cell-based, Pseudomonas aeruginosa; parameters: unit not given here; details: efflux proficient (MexAB-OprM overexpressed); decrease biapenem MIC 64-fold, 32 to 0.5 μg/ml
Protocol: as §1

CTX-M-14 = CTX-M-14 (Escherichia coli, UniProt Q9L5C7); assay: Inhibition of nitrocefin cleavage by purified enzyme (Ki); format: biochemical; details: nitrocefin reporter substrate; 10 min preincubation; read-out: Ki CTX-M-14, NCF
CTX-M-14, sequence (Q9L5C7 29-291): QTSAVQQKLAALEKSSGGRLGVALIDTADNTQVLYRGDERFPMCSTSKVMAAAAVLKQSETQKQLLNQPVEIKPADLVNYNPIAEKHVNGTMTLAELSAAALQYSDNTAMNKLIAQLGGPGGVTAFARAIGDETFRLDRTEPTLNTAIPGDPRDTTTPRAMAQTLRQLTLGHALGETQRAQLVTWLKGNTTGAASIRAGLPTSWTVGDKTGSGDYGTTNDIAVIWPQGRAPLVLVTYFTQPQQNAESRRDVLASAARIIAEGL
Protocol: as §2

SHV-12 = SHV-12 (Klebsiella pneumoniae, UniProt P0AD64, E235K/G234S/L31Q); assay: as above; format: biochemical
SHV-12, sequence (P0AD64 22-286 L31Q/G234S/E235K): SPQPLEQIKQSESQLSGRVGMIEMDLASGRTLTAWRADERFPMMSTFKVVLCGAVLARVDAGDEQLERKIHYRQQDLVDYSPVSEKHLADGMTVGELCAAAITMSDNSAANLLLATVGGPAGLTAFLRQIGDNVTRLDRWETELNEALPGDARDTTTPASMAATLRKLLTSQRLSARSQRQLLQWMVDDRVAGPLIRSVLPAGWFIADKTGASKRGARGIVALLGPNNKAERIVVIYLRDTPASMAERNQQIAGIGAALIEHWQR
Protocol: as §2

KP1005 (CTX-M-14) [24] = assay: Aztreonam potentiation (MPC@4); format: cell-based; details: aztreonam 4 μg/mL
KP1009 (CTX-M-15) [25] = assay: Tigemonam potentiation (MPC@4); format: cell-based
KP1010 (SHV-12) [26] = assay: Aztreonam potentiation (MPC@4); format: cell-based; details: aztreonam 4 μg/mL
KP1086 (OXA-48) [27] = assay: Biapenem potentiation (MPC@1); details: biapenem 1 μg/mL
KP1010 (SHV-12) [28] = assay: Tigemonam potentiation (MPC@4); format: cell-based
ECL1002 [29] = assay: Tigemonam potentiation (MPC@4); format: cell-based; details: tigemonam 4 μg/mL
ec308 (SHV-5) [30] = assay: Aztreonam potentiation (MPC@4); format: cell-based; details: aztreonam 4 μg/mL
KPC-2 = KPC-2 (Klebsiella pneumoniae, UniProt Q9F663); assay: Inhibition of nitrocefin cleavage by purified enzyme (Ki); format: biochemical; details: nitrocefin reporter substrate; 10 min preincubation; read-out: Ki KPC-2, NCF
KPC-2, sequence (Q9F663 25-293, looked up, species assumed): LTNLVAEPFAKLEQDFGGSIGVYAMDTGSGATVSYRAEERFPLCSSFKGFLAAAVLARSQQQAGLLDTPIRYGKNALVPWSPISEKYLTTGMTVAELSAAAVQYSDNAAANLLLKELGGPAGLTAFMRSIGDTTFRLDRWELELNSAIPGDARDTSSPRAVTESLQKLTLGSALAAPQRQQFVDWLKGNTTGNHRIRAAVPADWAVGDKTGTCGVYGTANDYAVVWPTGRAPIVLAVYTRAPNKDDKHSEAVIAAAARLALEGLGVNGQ
Protocol: as §2, with “min. These experiments confirmed that the described compounds are inhibitors with a broad-spectrum of activity towards various β-lactamases.” for “min.”

CMY-2 = CMY-2 (Klebsiella pneumoniae, UniProt Q48434); assay: as above; format: biochemical; details: nitrocefin reporter substrate; 10 min preincubation; read-out: Ki CMY-2, NCF
CMY-2, sequence (Q48434 21-381, species assumed): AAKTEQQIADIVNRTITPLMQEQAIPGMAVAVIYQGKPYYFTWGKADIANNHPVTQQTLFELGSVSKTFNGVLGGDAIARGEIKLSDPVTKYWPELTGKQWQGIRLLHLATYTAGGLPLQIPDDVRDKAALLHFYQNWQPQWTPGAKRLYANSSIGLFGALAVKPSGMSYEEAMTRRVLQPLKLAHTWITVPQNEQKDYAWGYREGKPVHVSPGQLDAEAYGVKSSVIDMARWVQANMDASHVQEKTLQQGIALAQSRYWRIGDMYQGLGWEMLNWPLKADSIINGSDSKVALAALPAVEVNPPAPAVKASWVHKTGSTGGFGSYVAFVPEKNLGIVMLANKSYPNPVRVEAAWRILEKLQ
Protocol: as §2, with “min. These experiments confirmed that the described compounds are inhibitors with a broad-spectrum of activity towards various β-lactamases.” for “min.”

OXA-48 = OXA-48 (Klebsiella pneumoniae, UniProt Q6XEC0); assay: as above; format: biochemical; details: nitrocefin reporter substrate; 10 min preincubation; read-out: Ki OXA-48, NCF
OXA-48, sequence (Q6XEC0 23-265, looked up, species assumed): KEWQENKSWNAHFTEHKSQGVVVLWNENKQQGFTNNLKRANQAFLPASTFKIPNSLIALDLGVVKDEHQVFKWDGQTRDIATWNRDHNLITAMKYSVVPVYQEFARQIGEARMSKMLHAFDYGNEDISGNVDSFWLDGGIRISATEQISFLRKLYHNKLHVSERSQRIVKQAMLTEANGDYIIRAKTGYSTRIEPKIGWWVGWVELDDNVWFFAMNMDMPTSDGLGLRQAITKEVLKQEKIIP
Protocol: as §2, with “min. These experiments confirmed that the described compounds are inhibitors with a broad-spectrum of activity towards various β-lactamases.” for “min.”

ECL1002 [31] = assay: Tigemonam MIC of test strain
KP1005 (CTX-M-14) [32] = assay: Tigemonam MIC of test strain
ec302 (TEM-10) [33] = assay: Tigemonam MIC of test strain
KP1009 (CTX-M-15) [34] = assay: Tigemonam MIC of test strain
EC1010 (CMY-6) [35] = assay: Tigemonam MIC of test strain
KP1010 (SHV-12) [36] = assay: Tigemonam MIC of test strain
ec308 (SHV-5) [37] = assay: Tigemonam MIC of test strain

SMILES: C[C@H]1[C@H](NC(=O)/C(=N\OC(C)(C)C(=O)O)c2csc(N)n2)C(=O)N1S(=O)(=O)O [Aztreonam]
MIC (KP1004 (KPC-2) [1]): > 128 mg/L
MIC (KP1009 (CTX-M-15) [2]): > 128 mg/L
MIC (KP1005 (CTX-M-14) [3]): > 128 mg/L
MIC (ec308 (SHV-5) [4]): > 128 mg/L
MIC (ec302 (TEM-10) [5]): 128 mg/L
MIC (KP1010 (SHV-12) [6]): 64 mg/L
MIC (EC1010 (CMY-6) [7]): > 128 mg/L

SMILES: C[C@@H](O)[C@H]1C(=O)N2C(C(=O)[O-])=C(SC3Cn4cnc[n+]4C3)[C@H](C)[C@H]12 (some centres unmarked) [Biapenem]
MIC (KP1086 (OXA-48) [8]): 16 mg/L
MIC (PAM1154/KPC-2 [9]): 32 mg/L
MIC (PAM1032/KPC-2 [10]): 32 mg/L
MIC (KP1004 (KPC-2) [11]): 32 mg/L

SMILES: Nc1nnc(SCC(=O)N[C@H]2CC=C[C@@H]3CC(=O)OB2O3)s1 [Compound 6, 2-(5-AMINO-1,3,4-THIADIAZOL-2-YLTHIO)-N-((2R,6S)-8-OXO-9,10-DIOXA-1-BORABICYCLO[4.3.1]DEC-4-EN-2-YL)ACETAMIDE]
MPC@4 tigemonam potentiation (KP1005 (CTX-M-14) [12]): X (X = MPC@4 ≤ 5 μg/mL)
MPC@4 aztreonam potentiation (EC1010 (CMY-6) [13]): X (X = MPC@4 ≤ 5 μg/mL)
MPC@4 aztreonam potentiation (KP1009 (CTX-M-15) [14]): X (X = MPC@4 ≤ 5 μg/mL)
Ki (P99): < 0.1 µM
MPC@4 tigemonam potentiation (EC1010 (CMY-6) [15]): X (X = MPC@4 ≤ 5 μg/mL)
MPC@4 aztreonam potentiation (ec302 (TEM-10) [16]): X (X = MPC@4 ≤ 5 μg/mL)
MPC@4 tigemonam potentiation (ec302 (TEM-10) [17]): Y (Y = 5 μg/mL < MPC@4 ≤ 20 μg/mL)
bioavailability (Oral pharmacokinetics): 2 to 4%
PAM1154/KPC-2 Biapenem MPC64 (PAM1154/KPC-2 [18]): 5
MPC@4 aztreonam potentiation (ECL1002 [19]): X (X = MPC@4 ≤ 5 μg/mL)
MPC@4 tigemonam potentiation (ec308 (SHV-5) [20]): X (X = MPC@4 ≤ 5 μg/mL)
MPC@1 biapenem potentiation (KP1004 (KPC-2) [21]): X (X = MPC@1 ≤ 5 μg/mL)
MPC@4 aztreonam potentiation (KP1004 (KPC-2) [22]): X (X = MPC@4 ≤ 5 μg/mL)
PAM1032/KPC-2 Biapenem MPC64 (PAM1032/KPC-2 [23]): 40
Ki (CTX-M-14): < 0.1 µM
Ki (SHV-12): < 0.1 µM
MPC@4 aztreonam potentiation (KP1005 (CTX-M-14) [24]): X (X = MPC@4 ≤ 5 μg/mL)
MPC@4 tigemonam potentiation (KP1009 (CTX-M-15) [25]): X (key: X = MPC@4 ≤ 5 μg/mL; Y = 5 μg/mL < MPC@4 ≤ 20 μg/mL; Z = MPC@4 > 20 μg/mL)
MPC@4 aztreonam potentiation (KP1010 (SHV-12) [26]): X (X = MPC@4 ≤ 5 μg/mL)
MPC@1 biapenem potentiation (KP1086 (OXA-48) [27]): Z (Z = MPC@1 > 20 μg/mL)
MPC@4 tigemonam potentiation (KP1010 (SHV-12) [28]): X (key: X = MPC@4 ≤ 5 μg/mL; Y = 5 μg/mL < MPC@4 ≤ 20 μg/mL; Z = MPC@4 > 20 μg/mL)
MPC@4 tigemonam potentiation (ECL1002 [29]): X (X = MPC@4 ≤ 5 μg/mL)
MPC@4 aztreonam potentiation (ec308 (SHV-5) [30]): X (X = MPC@4 ≤ 5 μg/mL)
Ki (KPC-2): 0.1 to 1 µM
Ki (CMY-2): < 0.1 µM
Ki (OXA-48): 0.1 to 1 µM

Tigemonam MIC (ECL1002 [31]): 32 mg/L
Tigemonam MIC (KP1005 (CTX-M-14) [32]): >64 mg/L
Tigemonam MIC (ec302 (TEM-10) [33]): >64 mg/L
Tigemonam MIC (KP1009 (CTX-M-15) [34]): >64 mg/L
Tigemonam MIC (EC1010 (CMY-6) [35]): 16 mg/L
Tigemonam MIC (KP1010 (SHV-12) [36]): >64 mg/L
Tigemonam MIC (ec308 (SHV-5) [37]): >64 mg/L
SMILES: CC1(C)[C@H](NC(=O)/C(=N\OCC(=O)O)c2csc(N)n2)C(=O)N1OS(=O)(=O)O [Tigemonam]
